Measurements published in US20250049972A1, “METHOD OF DETECTING PROSTATE CANCER IN A HUMAN SUBJECT USING A Cu 64 PSMA I&T INJECTION” (Curium US LLC, priority 2023, published 2025).

Key:
[1] = Phase 2 diagnostic image quality, 3-point scale, independent readers; format: in vivo, human
Experimental: Diagnostic quality was assessed for all scans using a 3-point scale and then percentages for each category were summarized for each reader and time point. No formal hypothesis testing was performed.

prostate cancer lesions = assay: Phase 2 PET/CT imaging: CLR, CDR and per patient sensitivity/specificity vs Composite Reference Standard, 3 blinded readers; format: in vivo, human; details: for Average Patient CDR: Average Correct Detection Rate (Standard Deviation) / Correct Localization Rate, region level / Number of Lesions Correctly Identified: IME Population; for Average Patient CDR: Average Correct Detection Rate (Standard Deviation) / Correct Localization Rate, region level: Phase 2; for Correct Localization Rate (region level CLR) / Number of Segments Correctly Identified / Pa Patient Specificity: Correct Patient Detection Rate / Pet Patient Sensitivity: Correct Patient Detection Rate: ITI Population; for Correct Localization Rate (region level CLR): 7-9 mCi; for Number of Lesions Correctly Identified: of 30 lesions truth; for Number of Segments Correctly Identified: of 30 segments truth
Experimental: A study was conducted to evaluate the use of Cu-64 PSMA I&T injection in imaging human patients with recurrent metastatic prostate cancer. The primary objectives were to determine efficacy on region and patient level and to assess safety for use with humans. The secondary objective was to assess image quality or AIQ using CLR and CDR. The study had two co-primary endpoints. First, region-level CLR defined as the percentage of regions containing at least one true PET positive lesion, with exactly localized correspondence between PET/CT imaging and the Composite Reference Standard regardless of any co-existent false positive findings, within the same region, out of all regions containing at least one PET positive finding. Second, patient-level CDR defined as the percentage of patients who have at least one true PET positive lesion, with exactly localized correspondence between PET imaging and the Composite Reference Standard, regardless of any co-existent false positive findings, out of all patients who are scanned. Both endpoints were measured for 1 and 4 hours post injection using PET scans. The study was powered to detect a CLR (detection rate) of greater than 60%. A sample size of 26 patients has an 80% power of detecting a true sensitivity of 85%. Key inclusion criteria included histologically proven prostate adenocarcinoma, prior radical prostatectomy, radiation therapy with curative intent, disease recurrence based on defined rise in PSA, and at least one extra prostatic site of disease suspected based on prior imaging or diagnosed by biopsy. Patients were administered 7-9 mCi Cu-64 PSMA I&T injection and then PET and/or CT images were acquired for all patients starting at approximately […] and 4 hours±30 minutes post Cu-64 PSMA I&T injection. Indeed, the images were collected from an approximate range of 45 minutes to 4 hours and 30 minutes post injection for all patients. The PET and CT images were interpreted independently by three readers blinded to all patient information. Each patient study was assessed and scored for the detection of prostate cancer. Specifically, each reader categorized images as “Disease” or “No Disease” based only on tumor uptake of Cu-64 PSMA-I&T in each of the five regions: (1) prostate bed or prostate gland, (2) lymph nodes (pelvic), (3) lymph nodes (extra pelvic), (4) bone, and (5) viscera/soft tissue. Analysis of the reads were used for determination of the CLR and CDR by comparison to the Composite Reference Standard. The Composite Reference Standard was defined as local histopathology obtained within 60 days before or following Cu-64 PSMA I&T PET/CT, or, if histopathology was not available, anatomical correlation of conventional image findings (e.g., targeted MRI or CT or any FDA-approved PET PSMA agent) obtained within 60 days before or following Cu-64 PSMA I&T PET/CT. A statistical threshold (with a lower bound of the 95% confidence interval) of 60% was prespecified for both CLR and CDR endpoints. The Phase 2 portion of the study included a separate group of 26 patients with biochemical recurrent PC. The dose for the Phase 2 portion of the study was 9 mCi with an acceptable range of 7 to 9 mCi. PET/CT images were acquired for all patients at 1 hour (±15 minutes) and 4 hours (±0.5 hours) post injection. The PET/CT images were interpreted independently by 3 readers blinded to all patient information. Each patient was assessed and scored for the detection of prostate cancer lesions. Specifically, each reader categorized images as “Disease” or “No Disease” based only on tumor uptake of copper Cu-64 PSMA I&T in each of 5 regions: (1) prostate bed or prostate gland, (2) lymph nodes (pelvic), (3) lymph nodes (extra pelvic), (4) bone, and (5) viscera/soft tissue. Analysis of the reads was used for determination of the CLR and CDR for 1 hour and 4 hours post-injection imaging of copper Cu-64 PSMA I&T PET/CT by comparison to a composite reference standard collected for each enrolled patient. […]

[2] = all 3 readers at both 1 and 4 hours

For `O=C(O)CC[C@H](NC(=O)N[C@@H](CCCCNC(=O)CCCCCCC(=O)NCCCC[C@@H](NC(=O)[C@@H](Cc1ccccc1)NC(=O)[C@@H](Cc1ccc(O)c(I)c1)NC(=O)CC[C@H](C(=O)O)N1CCN(CC(=O)O)CCN(CC(=O)O)CCN(CC(=O)O)CC1)C(=O)O)C(=O)O)C(=O)O` [Cu-64 PSMA I&T, 64 Cu-(3S, 7S, 26R, 29R, 32R, 37R)-29-benzyl-32(4-hydroxy-3-iodobenzyl)-5, 13, 20, 28, 31, 34-hexaoxo-37-(4,7,10-tris(carboxymethyl)-1,4,7, 10-tetraazacyclododecan-1-yl)-4,6, 12, 21, 27, 30, 33-heptaazaheptatriacontane-1,3,7, 26, 37-pentacarboxylic acid, metal not drawn], the “Image Quality Acceptable, patients (%)” value ([1]; Reader 1, 1 Hour Post Dose) was 26 (100.00%), the “Image Quality Acceptable, patients (%)” value ([1]; Reader 1, 4 Hours Post Dose) was 26 (100.00%) and the “Image Quality Acceptable, patients (%)” value ([1]; Reader 2, 1 Hour Post Dose) was 24 (92.31%). The “Image Quality Acceptable, patients (%)” value ([1]; Reader 2, 4 Hours Post Dose) was 26 (100.00%), the “Image Quality Acceptable, patients (%)” value ([1]; Reader 3, 1 Hour Post Dose) was 26 (100.00%) and the “Image Quality Acceptable, patients (%)” value ([1]; Reader 3, 4 Hours Post Dose) was 26 (100.00%). The “image quality as assessed by the independent readers” value ([1]; at both 1 and 4 hours) was “acceptable”, the “Average Patient CDR: Average Correct Detection Rate (Standard Deviation)” value (“Average Patient CDR … (Standard Deviation)” for short) (prostate cancer lesions; READER 1, 1 Hour Image) was 84.21% (33.552%) and the “Correct Localization Rate, region level” value (prostate cancer lesions; READER 1, 1 Hour Image) was 86.67%. The “Correct Localization Rate (region level CLR)” value (prostate cancer lesions; READER 1, 1 Hour Image) was 86.67%, the “Number of Lesions Correctly Identified” value (prostate cancer lesions; READER 1, 1 Hour Image) was 26 and the “Number of Segments Correctly Identified” value (prostate cancer lesions; READER 1, 1 Hour Image) was 26. The “Pa Patient Specificity: Correct Patient Detection Rate” value (from here on “Pa Patient Specificity”) (prostate cancer lesions; READER 1, 1 Hour image) was 100.00%, the “Pet Patient Sensitivity: Correct Patient Detection Rate” value (“Pet Patient Sensitivity” for short) (prostate cancer lesions; READER 1, 1 Hour image) was 100.00% and the “Average Patient CDR … (Standard Deviation)” value (prostate cancer lesions; READER 1, 4 Hour Image) was 84.21% (33.552%). The “Correct Localization Rate, region level” value (prostate cancer lesions; READER 1, 4 Hour Image) was 86.67%, the “Pa Patient Specificity” value (prostate cancer lesions; READER 1, 4 Hour Image) was 100.00% and the “Pet Patient Sensitivity” value (prostate cancer lesions; READER 1, 4 Hour Image) was 100.00%. For the same compound, the “Correct Localization Rate (region level CLR)” value (prostate cancer lesions; READER 1, 4 Hour Image) was 86.67%, the “Number of Lesions Correctly Identified” value (prostate cancer lesions; READER 1, 4 Hour Image) was 26 and the “Number of Segments Correctly Identified” value (prostate cancer lesions; READER 1, 4 Hour Image) was 26. For the same compound, the “Average Patient CDR … (Standard Deviation)” value (prostate cancer lesions; READER 2, 1 Hour Image) was 77.19% (38.172%), the Correct Localization Rate, region level (prostate cancer lesions; READER 2, 1 Hour Image) was 76.7% and the “Pa Patient Specificity” value (prostate cancer lesions; READER 2, 1 Hour Image) was 100.00%. The “Pet Patient Sensitivity” value (prostate cancer lesions; READER 2, 1 Hour Image) was 100.00%, the “Correct Localization Rate (region level CLR)” value (prostate cancer lesions; READER 2, 1 Hour Image) was 76.67% and the “Number of Lesions Correctly Identified” value (prostate cancer lesions; READER 2, 1 Hour Image) was 23. The “Number of Segments Correctly Identified” value (prostate cancer lesions; READER 2, 1 Hour Image) was 26, the “Average Patient CDR … (Standard Deviation)” value (prostate cancer lesions; READER 2, 4 Hour Image) was 79.82% (37.916%) and the “Correct Localization Rate, region level” value (prostate cancer lesions; READER 2, 4 Hour Image) was 80.00%. The “Pa Patient Specificity” value (prostate cancer lesions; READER 2, 4 Hour Image) was 100.00%, the “Pet Patient Sensitivity” value (prostate cancer lesions; READER 2, 4 Hour Image) was 100.00% and the “Correct Localization Rate (region level CLR)” value (prostate cancer lesions; READER 2, 4 Hour Image) was 80.00%. For the same compound, the “Number of Lesions Correctly Identified” value (prostate cancer lesions; READER 2, 4 Hour Image) was 24, the “Number of Segments Correctly Identified” value (prostate cancer lesions; READER 2, 4 Hour Image) was 24 and the “Average Patient CDR … (Standard Deviation)” value (prostate cancer lesions; READER 3, 1 Hour Image) was 80.70% (35.252%). The “Correct Localization Rate, region level” value (prostate cancer lesions; READER 3, 1 Hour Image) was 80.110%, the “Pa Patient Specificity” value (prostate cancer lesions; READER 3, 1 Hour Image) was 100.00% and the “Pet Patient Sensitivity” value (prostate cancer lesions; READER 3, 1 Hour Image) was 100.00%. For the same compound, the “Correct Localization Rate (region level CLR)” value (prostate cancer lesions; READER 3, 1 Hour Image) was 80.00%, the “Number of Lesions Correctly Identified” value (prostate cancer lesions; READER 3, 1 Hour Image) was 24 and the “Number of Segments Correctly Identified” value (prostate cancer lesions; READER 3, 1 Hour Image) was 24. For the same compound, the “Average Patient CDR … (Standard Deviation)” value (prostate cancer lesions; READER 3, 4 Hour Image) was 80.70% (35.252%), the “Correct Localization Rate, region level” value (prostate cancer lesions; READER 3, 4 Hour Image) was 80.00% and the Pa Patient Specificity: Correct Patient Detection Rate (prostate cancer lesions; READER 3, 4 Hour Image) was 100%. For the same compound, the “Pet Patient Sensitivity” value (prostate cancer lesions; READER 3, 4 Hour Image) was 100.00%, the “Correct Localization Rate (region level CLR)” value (prostate cancer lesions; READER 3, 4 Hour Image) was 80.00% and the “Number of Lesions Correctly Identified” value (prostate cancer lesions; READER 3, 4 Hour Image) was 24. The “Number of Segments Correctly Identified” value (prostate cancer lesions; READER 3, 4 Hour Image) was 24, the “patient level CDR vs prespecified threshold” value (prostate cancer lesions; [2]) was over 60% and the “region level CLR vs prespecified threshold” value (prostate cancer lesions; [2]) was over 60%. For the same compound, the “correct patient detection rate (per patient sensitivity and specificity)” value (prostate cancer lesions; all patients, both 1 and 4 hour images) was 100.00%, the “patients with no lesions detected on the PET/CT scan” value (prostate cancer lesions; of 26 patients) was 7 and the “patients with positive lesions on the PET/CT scan” value (prostate cancer lesions; of 26 patients) was 19.
